We go through two compounds from PMC10814725, “In Vitro Anti-Inflammatory Study of Limonoids Isolated from Chisocheton Plants” (Current Issues in Molecular Biology, 2024).

The structures appear in SMILES notation. Read-outs that look alike come from different tables or passages of the source.

One data set has as its system IL-1β. The data set can be described thus: ELISA of IL-1β production in LPS-stimulated THP-1 cells. Type of data set: cell-based, human. Conditions: 10 µM, compared to LPS (+)-stimulated group. On the procedure: (§1) The logarithmic growth phase of THP-1 cells was achieved by seeding in 96-well plates at a density of 5 × 10^4 cells/well and differentiated for 24 h in the presence of PMA (0.5 μM solution in medium). After 24 h of incubation, the culture medium was removed from the 96-well plate and the cells were washed with PBS. Fresh RPMI-1640 medium supplemented with 0.1% FBS and 1% Penicillin–Streptomycin was added to each well and incubated at 37 °C overnight. The cells were pretreated with 17 limonoids at the corresponding concentration for 1 h, followed by the addition of LPS (10 ng/mL) and then incubation at 37 °C for 18 h. Finally, 50 μL of each culture supernatant solution was taken to determine the concentrations of IL-6, MCP-1, and IL-1β using the corresponding commercially available human ELISA kits following the manufacturer’s instructions. The analyte concentration in the supernatant was measured in pg/mL, and the inhibition level was expressed as a fold change compared to the LPS (−) control group. To determine the IC50 value, the dose-response data were normalized to the LPS-stimulated-only group, and the percentage of inhibition was calculated using the following formula: % Inhibition=(Absorbance of LPS+ control−Absorbance of compound treatment with LPS)/(Absorbance of LPS+ control−Absorbance of LPS− control)×100
(§2) Furthermore, the % inhibition data were interpolated into linear equations to determine the IC50 values.
Background: An ELISA detects its analyte on a solid surface through an enzyme-linked reagent.

The nature of the next data set: in vitro. It is filed as cell-based. The settings on record: mouse. Here is the method:
(§3) The viability of HEK-Blue^TM hTLR4, […], and THP-1 cells was evaluated using the Dojindo Cell Counting Kit-8 (CCK-8) according to the manufacturer’s instructions. The viability of HEK-Blue^TM hTLR4 and THP-1 cells was assessed under identical conditions to the corresponding assay treatments. HEK-Blue^TM hTLR4 cells (2 × 10^4 cells/well) were seeded in 96-well plates and serum-starved for 24 h at 37 °C in a 5% CO2 atmosphere. After incubation, the culture medium was aspirated, and the cells were washed with saline. High-glucose D-MEM supplemented with 0.1% FBS and 1% penicillin–streptomycin was added and pretreated with or without the 17 limonoids at a concentration of 20 µM for 1 h, followed by LPS addition at a concentration of 10 ng/mL. After 18 h of incubation, a 10% (v/v) CCK-8 solution was added to each well and incubated at 37 °C for 1 h, and cell viability was calculated.

The test system of data set [1] is TNF-α, IL-6, IL-1β, and MCP-1. The data set can be described thus: ELISA of pro-inflammatory markers overall (TNF-α, IL-6, IL-1β, MCP-1) in LPS-stimulated THP-1 cells. It is filed as cell-based. The settings on record: Homo sapiens, read-out: Overall IC50 values for the evaluated pro-inflammatory markers. Here is the method:
as §1, §2

Another data set concerns MCP-1. The data set can be described thus: ELISA of MCP-1 production in LPS-stimulated THP-1 cells. It is filed as cell-based, human. The settings on record: 10 µM, compared to LPS (+)-stimulated group, THP-1 cells. On the procedure: as §1, with “Fresh RPMI-1640 medium supplemented with 0.1% FBS and 1% Penicillin–Streptomycin was added to each well and incubated at 37 °C overnight.” left out
as §2

The nature of data set [2]: Cell viability by CCK-8, THP-1 cells. The settings on record: human, PMA-differentiated THP-1 cells. It is filed as cell-based. Here is the method:
as §3
The THP-1 cells at 5 × 10^4 cells/well were differentiated for 24 h in the presence of PMA (0.5 μM solution in medium). After 24 h of incubation, the culture medium was removed from the 96-well plate and the cells were washed with PBS. Fresh RPMI-1640 medium supplemented with 0.1% FBS and 1% penicillin–streptomycin was added to each well and incubated at 37 °C for overnight. The cells were pretreated with 17 limonoids at the corresponding concentration for 1 h followed by the addition of LPS (10 ng/mL) and incubated at 37 °C for 18 h. Furthermore, CCK-8 solution was added to each well with a final concentration was 10% (v/v) and incubated at 37 °C. After 1 h, the absorbance of each well was measured at […] by using a microplate reader (BioTek Cytation 5 Cell Imaging Multimode Reader). Cell viability was calculated using the following formula: % Cell viability=(Absorbance of sample−Absorbance of Background)/(Absorbance of control−Absorbance of Background)×100 where the absorbance of the sample is the absorbance of cells treated by the compound with or without LPS, the absorbance of the control is the absorbance of LPS (−)-treated cells, and the background absorbance is the absorbance of a well containing only the medium. The results were expressed as 100% cell viability.

Data set [3] in a line: Cell viability by CCK-8, HEK-Blue hTLR4 cells. Type of data set: cell-based. Conditions: human. Here is the method: as §3
For a further data set, the system named is IL-6. The data set can be described thus: ELISA of IL-6 production in LPS-stimulated THP-1 cells. Type of data set: cell-based, human. Here is the method: as §1, with “Fresh RPMI-1640 medium supplemented with 0.1% FBS and 1% Penicillin–Streptomycin was added to each well and incubated at 37 °C overnight.” left out
as §2

For a further data set, the system named is phosphorylated-p38 MAPK. The data set can be described thus: Western blotting of phosphorylated-p38 MAPK in LPS-stimulated THP-1 cells. It is filed as cell-based, human. The settings on record: 10 µM, LPS 10 ng/mL, 18 h, compared to LPS (+) group. On the procedure:
THP-1 cells were seeded at a density of 1 × 10^6 cells/well in 24-well plates. The cells were then pretreated with a concentration of 10 µM of compounds 3, 5, 9, or 15 for 1 h. Subsequently, LPS (10 ng/mL) was added to the cells, which were incubated for 18 h. The protein concentrations were determined using a bicinchoninic acid (BCA) assay kit.
For Western blot analysis, proteins were separated by SDS-PAGE and transferred onto a polyvinylidene fluoride (PVDF) membrane. The membranes were blocked with 2.5% BSA in Tris-buffered saline-Tween (TBST) for 1 h at room temperature. After three washes with TBST, the membranes were incubated with a diluted primary antibody solution (anti-phosphorylated-p38 MAPK or anti-p38 MAPK) at a 1:1000 dilution for 1 h at room temperature. After three washes with TBS-T, the membranes were incubated with a secondary antibody conjugated to horseradish peroxidase (HRP; 1:4000 dilution) for 30 min at room temperature and subsequently detected by chemiluminescence. Finally, the bands were visualized and quantified using an ImageQuant 800 GxP system (Cytiva, MA, USA). The results were expressed as ratios relative to the reference protein β-actin.
(In general: A western blot detects proteins with antibodies after separation by electrophoresis.)

A further data set has as its system TNF-α. The data set can be described thus: ELISA of TNF-α production in LPS-stimulated THP-1 cells. Type of data set: cell-based, human. The settings on record: for IC50: LPS-stimulated (10 ng/mL) THP-1 cells, 1, 5, 10, 20 µM, 18 h, read-out: TNF-α IC50.
Data set [4] concerns TLR4-dependent NF-kB activation in HEK-Blue hTLR4 cells. The data set can be described thus: SEAP reporter gene assay, antagonist effect on LPS-stimulated TLR4-dependent NF-κB activation. It is filed as cell-based, human. Conditions: 20 µM, LPS 10 ng/mL, 18 h, vs. LPS stimulated-only group. On the procedure:
(§4) The SEAP Reporter Gene Assay was conducted as previously described. HEK-Blue^TM hTLR4 cells (2 × 10^4 cells/well) were seeded in 96-well plates and were serum-starved for 24 h at 37 °C in a 5% carbon dioxide atmosphere. After incubation, the culture medium was aspirated, and the cells were washed with saline. High-glucose D-MEM supplemented with 0.1% FBS and 1% penicillin-streptomycin was added and treated with or without the 17 limonoids at a concentration of 20 µM for 1 h, followed by LPS addition at a concentration of 10 ng/mL for the LPS-stimulated group. After incubation at 37 °C for 18 h, the supernatants were collected and PNPP in PBS solution (0.8 mM, 100 μL) was added, followed by 4 h of shading at 25 °C. The optical density (OD) of the samples was measured at 405 nm using a microplate reader (BioTek Cytation 5 Cell Imaging Multimode Reader, Agilent Technologies, Santa Clara, CA, USA).

Data set [5] deals with NF-κB activation in HEK-Blue hTLR4 cells. The data set can be described thus: SEAP reporter gene assay, agonist effect on NF-κB activation (without LPS). It is filed as cell-based, human. The settings on record: 20 µM, compared to LPS (−)-treated cells. On the procedure:
as §4

The mark [6] stands for this setting: LPS 10 ng/mL, read-out: Viability Cell (%) THP-1 LPS-Induced (10 ng/mL).
Setting [7] is: without LPS, read-out: Viability Cell (%) THP-1 Without LPS.
Where [8] appears, read: Viability Cell (%) HEK-Blue hTLR4 LPS-Induced (10 ng/mL).
Setting [9] is: Viability Cell (%) HEK-Blue hTLR4 Without LPS.
[10] abbreviates: 10 µM, compared to LPS (+)-stimulated group, THP-1 cells.

Take `CC(=O)O[C@@H]1[C@H](O)[C@H]2C(C)(C)C(=O)C=C[C@]2(C)[C@H]2CC[C@]3(C)C(=CC[C@H]3c3ccoc3)[C@]12C` [Compound 9, nimonol]: in the data set on IL-1β, the “Effect on IL-1β level” value is given as “significantly reduced”. For the same compound, the viability at 5 µM in “in vitro” was 93.8 ± 1.86%. In the data set “in vitro”, this compound yielded a viability at 10 µM of 89.9 ± 2.44%. The viability at 20 µM in the data set “in vitro” amounted to 79.4 ± 10.2%. The IC50 was < 20 µM in data set [1]; < 3 µM in the data set on TNF-α (Homo sapiens, THP-1, 18 h); 2.15 µM in the data set on TNF-α. For the same compound, the “Effect on MCP-1 level” value in the data set with MCP-1 was “significantly reduced”. The viability at 18 h, 10 µM in [2] (setting [6]) is 83.9 ± 7.6%; in [2] (setting [7]), > 99.9%. This compound returned a half-maximal cytotoxic concentration (CC50) at 18 h in data set [2] (concentration causing 50% cytotoxicity against THP-1 cells) of 107 µM. For the same compound, the viability at 18 h, 20 µM in data set [3] (setting [8]) was 74.8 ± 6.22%; in data set [3] (setting [9]) it was > 99.9%. Further, the “Effect on IL-6 level” value in the data set on IL-6 (setting [10]) is given as “significantly reduced”. The “IL-6 SI (selectivity index, CC50/IC50)” value in the data set on IL-6 (THP-1 CC50 / IL-6 IC50) stood at 94.98. The “Effect on p-p38 MAPK levels” value with phosphorylated-p38 MAPK is recorded as “significantly suppressed”. In the data set on TNF-α (setting [10]), the “Effect on TNF-α level” value is given as “significantly reduced”. Also, in the data set with TNF-α (THP-1 CC50 / TNF-α IC50), the “TNF-α SI (selectivity index, CC50/IC50)” value is listed as 49.92.

In the data set “in vitro”, `CC1(C)C(=O)C=CC2(C)C1=C(O)C(=O)C1(C)C2(O)C(O)CC2(C)C(c3ccoc3)CC3OC321` (stereo not shown) [Compound 17, pentandricine G] showed a viability at 5 µM of 77.5 ± 10.2%, a viability at 10 µM of 72.2 ± 4.68% and a viability at 20 µM of 73.1 ± 2.02%. The “Inhibition of SEAP release (NF-κB activity inhibition)” value in [4] is given as “significantly inhibited SEAP release”. The IC50 in data set [1] is < 20 µM. Also, the viability at 18 h, 10 µM in data set [2] (setting [6]) is > 99.9%. Besides, in data set [2] (setting [7]), the viability at 18 h, 10 µM was 87.3 ± 4.18%. In addition, the viability at 18 h, 20 µM in [3] (setting [8]) turned out to be 64.2 ± 9.05%. Moreover, the viability at 18 h, 20 µM in data set [3] (setting [9]) is > 99.9%. Besides, in [5], the “Agonist effect on NF-κB activation” value is listed as “weak agonist effect”.

The term IC50 denotes the concentration at which inhibition is half-maximal. As usually defined, the CC50 is the concentration at which the toxic effect on the cells reaches its halfway point. A low value points to harm at low concentration.
